Results: patent publication US6610310B2, “Polyanionic polymers as adjuvants for mucosal immunization” (priority 1996, dated 2003)

Assays:
Set-up in all cases: species or system mice
Conditions in all cases: mouse, in vivo
[1] = system: Newcastle Disease Virus (NDV) strain Lasota
[2] = system: influenza virus, strain MRC-11
[3] = system: influenza virus strain A/Texas

## Cholera toxin subunit B [CTB]
[1]
  anti-NDV Ig-producing cells/10^6 cells 3 weeks following immunization, mean; IgA in the spleen: 84 cells/10^6 cells
  anti-NDV Ig-producing cells/10^6 cells 3 weeks following immunization, mean; IgG in the lungs: 10 cells/10^6 cells
  anti-NDV Ig-producing cells/10^6 cells 3 weeks following immunization, mean; IgG in the spleen: 8 cells/10^6 cells
  anti-NDV Ig-producing cells/10^6 cells 6 weeks following immunization, mean; IgA in the lungs: 23 cells/10^6 cells
[2]
  anti-NDV Ig-producing cells/10^6 cells 3 weeks following immunization, mean; IgA in the lungs: 82 cells/10^6 cells
[3]
  specific Ig-producing cells/10^6 cells 3 weeks following first immunization, mean; IgA in the lungs: 961 cells/10^6 cells
